Assay results: patent US10287619B2, “Measurement method for dehydrogenase and substrate concentration thereof, electron mediator, and measurement reagent for dehydrogenase including said electron mediator and for substrate thereof” (Dojindo Laboratories, priority 2014, dated 2019)

Columns and labels:
[1] = test system: Human myeloid leukemia cells (HL60); assay: Evaluation of electron transfer with living cells (WST-8 formazan formation); type: cell-based; settings: HL60 25,000 to 0 cells/well; WST-8 500 μM, electron mediator 10 μM; 37° C. for 3 hours; FIG. 3A-3D
Method: Examples of the evaluation of the electron transfer between the electron mediators and the living cells are shown. For comparison, a similar experiment was carried out using 1-Methoxy PMS, a known electron mediator that carries out electron transfer with the living cells. Human myeloid leukemia cells (HL60) were seeded on a 96 well microplate at 25,000 to 0 cells/well, the measurement reagent was added at a final concentration shown below, after reacting at 37° C. for 3 hours and absorbance at 450 nm was measured. Final concentration of the measurement reagent: WST-8 (500 μM), the electron mediator (10 μM).

[2] = test system: Chinese Hamster Ovarian (CHO) cells; assay: Cytotoxicity assay using LDH leaked out of the dead cells as an index; type: cell-based; settings: comparison of the IC50 obtained with the electron mediator of the invention (FIG. 5A) and with the commercial LDH-Cytotoxicity Assay Kit (FIG. 5B); MMC 1 mM to 0.0001 mM, 20 hours
Method: The example of the cytotoxicity assay using the LDH leaked out of the dead cell as an index and the solutions of the chromogenic reagent prepared using the electron mediator according to the present invention is shown. As a model of the cytotoxicity assay, cytotoxicity of mitomycin C (MMC) against Chinese Hamster Ovarian (CHO) cells was assayed.
A suspension of the CHO cells at the concentration of 1.5×10^5 cells/mL was prepared using serum-containing medium and 100 μL of the suspension was seeded to each well of a 96 well microplate. After incubating at 37° C. for 4 hours in a CO2 incubator, 10 μL of MMC was added at final concentration of 1 mM to 0.0001 mM. The microplate was incubated at 37° C. for 20 hours in the CO2 incubator. […] After incubating at 37° C. for 20 minutes in a CO2 incubator, the absorbance at 450 nm was measured using a microplate reader.
A comparative experiment using a commercially available dead cell assay kit (BioPioneer Inc., LDH-Cytotoxicity Assay Kit) using LDH as an index. […] The measurement method of the absorbance was similar to that as mentioned above except that supernatant of the medium was taken and transferred to another plate so as not to be contaminated with the living cells upon conducting the chromogenic reaction.

Structure (SMILES)	formation of the formazan attributed to the living cells (absorbance at 450 nm) [1]	50% Inhibition concentration (IC50) against the CHO cell [2]
COS(=O)(=O)[O-].COc1cccc2c1nc1ccccc1[n+]2C [1-Methoxy PMS, 1-methoxy phenazine methosulfate]	increasing of absorbance	–
CO[C@@]12[C@H](COC(N)=O)C3=C(C(=O)C(C)=C(N)C3=O)N1C[C@@H]1N[C@@H]12 [mitomycin C]	–	No difference was observed
